How the values were obtained:
[1] = system: barley; experiment: Herbicidal bioassay, barley (% necrosis); type: in vivo
How it was run: (§1)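 Lolium perenne, barley, peas and Chinese cabbage at 2-4 true leaf stage sprayed simultaneously with a Potter tower, compounds in DMSO at six concentrations (0.05% to 0.0001%). Phytotoxicity scored as % necrosis per EPPO PP1/135 at set intervals; five replicates per treatment and species; DMSO and water controls.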

[2] = system: peas; experiment: Herbicidal bioassay, peas (% necrosis); type: in vivo
How it was run: as §1

## CC(=O)OCC(C)Oc1ccc(Oc2ccc(C(F)(F)F)cn2)cc1 (stereo not drawn) [Compound 63, 2-[4-[[5-(Trifluoromethyl)-2-pyridyl]oxy]phenoxy]propyl acetate]
[1]; Dose 0.000001, Day 0
  Sum of % necrosis in barley: C (less than 50% necrosis)
[1]; Dose 0.000001, Day 1
  Sum of % necrosis in barley: C (less than 50% necrosis)
[1]; Dose 0.000001, Day 3
  Sum of % necrosis in barley: C (less than 50% necrosis)
[1]; Dose 0.000001, Day 7
  Sum of % necrosis in barley: C (less than 50% necrosis)
[1]; Dose 0.000001, Day 10
  Sum of % necrosis in barley: C (less than 50% necrosis)
[1]; Dose 0.000001, Day 14
  Sum of % necrosis in barley: C (less than 50% necrosis)
[1]; Dose 0.000001, Day 21
  Sum of % necrosis in barley: C (less than 50% necrosis)
[1]; Dose 0.000005, Day 0
  Sum of % necrosis in barley: C (less than 50% necrosis)
[1]; Dose 0.000005, Day 1
  Sum of % necrosis in barley: C (less than 50% necrosis)
[1]; Dose 0.000005, Day 3
  Sum of % necrosis in barley: C (less than 50% necrosis)
[1]; Dose 0.000005, Day 7
  Sum of % necrosis in barley: C (less than 50% necrosis)
[1]; Dose 0.000005, Day 10
  Sum of % necrosis in barley: C (less than 50% necrosis)
[1]; Dose 0.000005, Day 14
  Sum of % necrosis in barley: C (less than 50% necrosis)
[1]; Dose 0.000005, Day 21
  Sum of % necrosis in barley: C (less than 50% necrosis)
[1]; Dose 0.00001, Day 0
  Sum of % necrosis in barley: C (less than 50% necrosis)
[1]; Dose 0.00001, Day 1
  Sum of % necrosis in barley: C (less than 50% necrosis)
[1]; Dose 0.00001, Day 3
  Sum of % necrosis in barley: C (less than 50% necrosis)
[1]; Dose 0.00001, Day 7
  Sum of % necrosis in barley: C (less than 50% necrosis)
[1]; Dose 0.00001, Day 10
  Sum of % necrosis in barley: C (less than 50% necrosis)
[1]; Dose 0.00001, Day 14
  Sum of % necrosis in barley: C (less than 50% necrosis)
[1]; Dose 0.00001, Day 21
  Sum of % necrosis in barley: C (less than 50% necrosis)
[1]; Dose 0.00005, Day 0
  Sum of % necrosis in barley: C (less than 50% necrosis)
[1]; Dose 0.00005, Day 1
  Sum of % necrosis in barley: C (less than 50% necrosis)
[1]; Dose 0.00005, Day 3
  Sum of % necrosis in barley: C (less than 50% necrosis)
[1]; Dose 0.00005, Day 7
  Sum of % necrosis in barley: C (less than 50% necrosis)
[1]; Dose 0.00005, Day 10
  Sum of % necrosis in barley: C (less than 50% necrosis)
[1]; Dose 0.00005, Day 14
  Sum of % necrosis in barley: B (50%-80% necrosis)
[1]; Dose 0.00005, Day 21
  Sum of % necrosis in barley: B (50%-80% necrosis)
[1]; Dose 0.0001, Day 0
  Sum of % necrosis in barley: C (less than 50% necrosis)
[1]; Dose 0.0001, Day 1
  Sum of % necrosis in barley: C (less than 50% necrosis)
[1]; Dose 0.0001, Day 3
  Sum of % necrosis in barley: C (less than 50% necrosis)
[1]; Dose 0.0001, Day 7
  Sum of % necrosis in barley: C (less than 50% necrosis)
[1]; Dose 0.0001, Day 10
  Sum of % necrosis in barley: C (less than 50% necrosis)
[1]; Dose 0.0001, Day 14
  Sum of % necrosis in barley: C (less than 50% necrosis)
[1]; Dose 0.0001, Day 21
  Sum of % necrosis in barley: C (less than 50% necrosis)
[1]; Dose 0.0005, Day 0
  Sum of % necrosis in barley: C (less than 50% necrosis)
[1]; Dose 0.0005, Day 1
  Sum of % necrosis in barley: C (less than 50% necrosis)
[1]; Dose 0.0005, Day 3
  Sum of % necrosis in barley: C (less than 50% necrosis)
[1]; Dose 0.0005, Day 7
  Sum of % necrosis in barley: C (less than 50% necrosis)
[1]; Dose 0.0005, Day 10
  Sum of % necrosis in barley: C (less than 50% necrosis)
[1]; Dose 0.0005, Day 14
  Sum of % necrosis in barley: C (less than 50% necrosis)
[1]; Dose 0.0005, Day 21
  Sum of % necrosis in barley: C (less than 50% necrosis)
[2]; Dose 0.000001, Day 0
  Sum of % necrosis in Peas: C (less than 50% necrosis)
[2]; Dose 0.000001, Day 1
  Sum of % necrosis in Peas: C (less than 50% necrosis)
[2]; Dose 0.000001, Day 3
  Sum of % necrosis in Peas: C (less than 50% necrosis)
[2]; Dose 0.000001, Day 7
  Sum of % necrosis in Peas: C (less than 50% necrosis)
[2]; Dose 0.000001, Day 10
  Sum of % necrosis in Peas: B (50%-80% necrosis)
[2]; Dose 0.000001, Day 14
  Sum of % necrosis in Peas: B (50%-80% necrosis)
[2]; Dose 0.000001, Day 21
  Sum of % necrosis in Peas: A (over 80% necrosis)
[2]; Dose 0.000005, Day 0
  Sum of % necrosis in Peas: C (less than 50% necrosis)
[2]; Dose 0.000005, Day 1
  Sum of % necrosis in Peas: C (less than 50% necrosis)
[2]; Dose 0.000005, Day 3
  Sum of % necrosis in Peas: C (less than 50% necrosis)
[2]; Dose 0.000005, Day 7
  Sum of % necrosis in Peas: C (less than 50% necrosis)
[2]; Dose 0.000005, Day 10
  Sum of % necrosis in Peas: B (50%-80% necrosis)
[2]; Dose 0.000005, Day 14
  Sum of % necrosis in Peas: B (50%-80% necrosis)
[2]; Dose 0.000005, Day 21
  Sum of % necrosis in Peas: A (over 80% necrosis)
[2]; Dose 0.00001, Day 0
  Sum of % necrosis in Peas: C (less than 50% necrosis)
[2]; Dose 0.00001, Day 1
  Sum of % necrosis in Peas: C (less than 50% necrosis)
[2]; Dose 0.00001, Day 3
  Sum of % necrosis in Peas: C (less than 50% necrosis)
[2]; Dose 0.00001, Day 7
  Sum of % necrosis in Peas: C (less than 50% necrosis)
[2]; Dose 0.00001, Day 10
  Sum of % necrosis in Peas: B (50%-80% necrosis)
[2]; Dose 0.00001, Day 14
  Sum of % necrosis in Peas: B (50%-80% necrosis)
[2]; Dose 0.00001, Day 21
  Sum of % necrosis in Peas: A (over 80% necrosis)
[2]; Dose 0.00005, Day 0
  Sum of % necrosis in Peas: C (less than 50% necrosis)
[2]; Dose 0.00005, Day 1
  Sum of % necrosis in Peas: C (less than 50% necrosis)
[2]; Dose 0.00005, Day 3
  Sum of % necrosis in Peas: C (less than 50% necrosis)
[2]; Dose 0.00005, Day 7
  Sum of % necrosis in Peas: B (50%-80% necrosis)
[2]; Dose 0.00005, Day 10
  Sum of % necrosis in Peas: A (over 80% necrosis)
[2]; Dose 0.00005, Day 14
  Sum of % necrosis in Peas: A (over 80% necrosis)
[2]; Dose 0.00005, Day 21
  Sum of % necrosis in Peas: A (over 80% necrosis)
[2]; Dose 0.0001, Day 0
  Sum of % necrosis in Peas: C (less than 50% necrosis)
[2]; Dose 0.0001, Day 1
  Sum of % necrosis in Peas: C (less than 50% necrosis)
[2]; Dose 0.0001, Day 3
  Sum of % necrosis in Peas: C (less than 50% necrosis)
[2]; Dose 0.0001, Day 7
  Sum of % necrosis in Peas: C (less than 50% necrosis)
[2]; Dose 0.0001, Day 10
  Sum of % necrosis in Peas: C (less than 50% necrosis)
[2]; Dose 0.0001, Day 14
  Sum of % necrosis in Peas: B (50%-80% necrosis)
[2]; Dose 0.0001, Day 21
  Sum of % necrosis in Peas: B (50%-80% necrosis)
[2]; Dose 0.0005, Day 0
  Sum of % necrosis in Peas: C (less than 50% necrosis)
[2]; Dose 0.0005, Day 1
  Sum of % necrosis in Peas: C (less than 50% necrosis)
[2]; Dose 0.0005, Day 3
  Sum of % necrosis in Peas: C (less than 50% necrosis)
[2]; Dose 0.0005, Day 7
  Sum of % necrosis in Peas: C (less than 50% necrosis)
[2]; Dose 0.0005, Day 10
  Sum of % necrosis in Peas: B (50%-80% necrosis)
[2]; Dose 0.0005, Day 14
  Sum of % necrosis in Peas: B (50%-80% necrosis)
[2]; Dose 0.0005, Day 21
  Sum of % necrosis in Peas: B (50%-80% necrosis)

— US20150094474A1, “AGRICULTURAL CHEMICALS” (Redx Pharma Ltd., priority 2012, published 2015)
